For ten molecules, Activity, activity and Km results are on record in ChEMBL document CHEMBL2074036, “Renal transport of organic compounds mediated by mouse organic anion transporter 3 (mOat3): further substrate specificity of mOat3” (Drug Metab Dispos, 2004).

The target of data set [1] is T1, Organic anion transporter 3 (Mus musculus, UniProt O88909).
T1 sequence (O88909 whole entry): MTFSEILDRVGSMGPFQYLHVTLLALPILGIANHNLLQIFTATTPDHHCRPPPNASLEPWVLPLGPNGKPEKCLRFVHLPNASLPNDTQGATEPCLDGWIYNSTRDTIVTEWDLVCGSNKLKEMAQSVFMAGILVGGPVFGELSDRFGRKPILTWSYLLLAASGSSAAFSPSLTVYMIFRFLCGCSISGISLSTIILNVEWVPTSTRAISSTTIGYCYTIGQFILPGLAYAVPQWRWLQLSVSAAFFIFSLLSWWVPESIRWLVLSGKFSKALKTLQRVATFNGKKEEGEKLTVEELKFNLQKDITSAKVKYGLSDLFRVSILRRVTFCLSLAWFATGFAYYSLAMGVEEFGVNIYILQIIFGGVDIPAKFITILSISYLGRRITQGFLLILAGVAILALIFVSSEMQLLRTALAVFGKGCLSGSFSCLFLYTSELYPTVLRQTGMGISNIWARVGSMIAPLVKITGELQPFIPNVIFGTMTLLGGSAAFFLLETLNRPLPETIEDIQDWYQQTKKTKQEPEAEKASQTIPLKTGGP
As to the kind of experiment: (§1) TP_TRANSPORTER: uptake in mOat3-expressing oocytes. The format is functional, cell-based. The following applies: oocyte.

The target in data set [2] is T2, Oat3 (organic anion transporter 3) (Mus musculus, UniProt O88909).
T2 sequence (O88909 whole entry): T1 sequence (O88909 whole entry)
In words: TP_TRANSPORTER: inhibition of PHA uptake (PHA: 1000uM) in mOat3-expressing oocytes. The format is functional, cell-based, Oocyte. Details: scale not given: the % may be the effect or the level left. To be noted: probe PHA (1000 uM).

Data set [3] addresses T2, Oat3 (organic anion transporter 3). In words: TP_TRANSPORTER: inhibition of PHA uptake (PHA: 1000uM) by P-aminohippuric acid at a concentration of 10uM in mOat3-expressing oocytes. It counts as functional, cell-based, Oocyte. Details: scale not given: the % may be the effect or the level left. The following applies: probe PHA (1000 uM), read-out: Activity.
Substrate in data set [4]: Sc1ncnc2nc[nH]c12
The description is as §1. The format is functional, cell-based, Oocyte.

Substrate in data set [5]: C[N+](C)(C)C[C@H](O)CC(=O)[O-]
Described as §1. The format is functional, cell-based, Oocyte.

Substrate in data set [6]: O=c1[nH]cc(F)c(=O)[nH]1
The description is as §1. The format is functional, cell-based, Oocyte.

By Km is commonly meant the concentration of substrate that gives half-maximal velocity.

For the molecule `Oc1ncnc2[nH]ncc12` [ALLOPURINOL], the Activity result in data set [1] was “substrate []”.
In the case of `CN/C(=N/CCSCc1nc[nH]c1C)NC#N` [CIMETIDINE], in data set [2], the Activity came out at 65%.
Molecule `CCOC(=O)[C@H](CCc1ccccc1)N[C@@H](C)C(=O)N1CCC[C@H]1C(=O)O` had an Activity in data set [2] of 45%.
For `CC(C)Cc1ccc(C(C)C(=O)O)cc1` (stereo not drawn) [IBUPROFEN], the Activity in data set [2] was 80%.
Regarding `CCCCC[C@H](O)/C=C/[C@H]1[C@H](O)CC(=O)[C@@H]1C/C=C\CCCC(=O)O` [DINOPROSTONE], the Activity result in data set [1] was “substrate []”.
As for `CCCCC[C@H](O)/C=C/[C@@H]1[C@@H](C/C=C\CCCC(=O)O)[C@@H](O)C[C@H]1O` [DINOPROST], in data set [1], the Activity result is “substrate []”.
Molecule `CN1C(C(=O)Nc2ccccn2)=C(O)c2sccc2S1(=O)=O` [TENOXICAM] yielded an Activity in data set [2] of 55%.
`Nc1ccc(C(=O)NCC(=O)O)cc1` [AMINOHIPPURIC ACID]: in data set [3], the activity at 10 µM is 20%. The Activity result in data set [1] is “substrate []”.
Turning to `C[C@]12CC[C@@H]3c4ccc(OS(=O)(=O)O)cc4CC[C@H]3[C@@H]1CCC2=O` [ESTRONE SULFURIC ACID], the Activity result in data set [1] is “substrate []”.

B1: Organic anion transporter 3 (Mus musculus) (protein)
chain: T1 sequence (O88909 whole entry)
With B1, the Km in data set [4] amounted to 4.01 µM; in data set [5], 0.0619 µM; in data set [6], 0.0539 µM.
